Laboratory results as given in US20250241879A1, “CAPSAICIN SEQUENTIAL DOSING METHOD FOR TREATMENT OF KNEE JOINT PAIN” (priority 2018, published 2025).

Tests used:
[1] = tested on: human patients with chronic knee osteoarthritis; test: Treatment-emergent adverse events, SAEs and laboratory abnormalities after single intra-articular injection (Example 2); assay type: in vivo; conditions: for All TEAEs, (%) / Arthralgia TEAE, (%) / Hepatic enzyme increased TEAE, (%) / Influenza TEAE, (%) / Joint effusion TEAE, (%) / Nasopharyngitis TEAE, (%) / Upper respiratory tract infection TEAE, (%): through 24 weeks
Protocol: Human patients experiencing osteoarthritic knee joint pain received either placebo, a 0.5 mg intra-articular injection of capsaicin into the osteoarthritic knee joint, or a 1.0 mg intra-articular injection of capsaicin into the osteoarthritic knee joint. […]
(§1) Human patients aged 45-80 years with chronic knee osteoarthritis, stable moderate to severe pain, and intolerability to analgesics were randomized to receive a single intra-articular injection of placebo into the osteoarthritic knee, a single intra-articular injection of a 0.5 mg dose of capsaicin into the osteoarthritic knee, or a single intra-articular injection of a 1.0 mg dose of capsaicin into the osteoarthritic knee.
(§2) Safety assessments included treatment-emergent adverse events (TEAEs), serious AEs (SAEs), laboratory abnormalities, and procedural pain ratings (none, mild, moderate, moderately severe, severe). The procedure pain ratings characterize the extent of transient burning sensation experienced by patients due to administration of capsaicin.

[2] = tested on: human patients with chronic knee osteoarthritis; test: Procedural pain ratings (none, mild, moderate, moderately severe, severe) after intra-articular injection (Example 2); assay type: in vivo; conditions: 2 hours after injection of capsaicin (or placebo); all groups
Source text: as §2

[3] = tested on: osteoarthritic knee joint pain; test: Patient Global Impression of Change (PGIC), index knee (Example 2); assay type: in vivo, human; conditions: for PGIC: proportion of patients reporting significant improvement in the index knee: week 4, placebo 44%
Protocol: as §1
(§3) Patients completed Patient Global Impression of Change (PGIC; change vs baseline in index knee on 7-point scale: 1=very much improved; 7=very much worse, with scores of 1 or 2 indicating significant improvement) and Patient-specific Functional Scale (PSFS; rate≤3 important activities difficult to perform due to index knee pain on 0-10 scale: 0=able to perform; 10=unable to perform) at scheduled visits. Odds ratios for PGIC scores were calculated with chi-square tests. Changes in Western Ontario and McMaster Universities Osteoarthritis Index (WOMAC) B stiffness subscale and WOMAC C function subscale through week 24 were also assessed. PSFS, WOMAC B, and WOMAC C scores were evaluated using a mixed model for repeated measures. Statistical tests were 2-sided (alpha, P=0.10).

[4] = tested on: osteoarthritic knee joint pain; test: Patient-specific Functional Scale (PSFS) (Example 2); assay type: in vivo, human
Protocol: as §1, §3

[5] = tested on: osteoarthritic knee joint pain; test: WOMAC B stiffness subscale (Example 2); assay type: in vivo, human; conditions: 1.0 mg dose; through week 16; P=0.007
Protocol: as §1, §3

[6] = tested on: osteoarthritic knee joint pain; test: WOMAC C function subscale (Example 2); assay type: in vivo, human; conditions: 1.0 mg dose; through week 16; P=0.02
Protocol: as §1, §3

[7] = tested on: human patients with bilateral knee osteoarthritis; test: Procedure pain (NPRS) due to intraarticular trans-capsaicin, Breg pad vs ice pack cooling (Example 7); assay type: in vivo; conditions: Breg Knee WrapOn Polar Pad cooling compared to ice-pack cooling (Example 7)
Protocol: Human patients experiencing osteoarthritic knee joint pain were subjected to two different protocols for intraarticular administration of trans-capsaicin. Temporary pain expected due to administration of capsaicin was analyzed, along with the intraarticular temperature of the knee joint and the temperature of the patient's skin in the area to be cooled.
(§4) One of the protocols utilized a Breg Knee WrapOn Polar Pad (as illustrated in FIG. 1) that utilizes circulating ice-water to achieve cooling, where the pad is placed on skin surrounding the knee in order to cool the knee joint. The other protocol utilized ice-pack cooling, in which the patient's knee was wrapped with a stockinette and then the ice pack was positioned on top of the stockinette so that the ice pack is positioned over the patient's patella to thereby cool the knee joint. The ice pack was a LEADSTAR pain relief reusable cold therapy ice pack (size=6 inches). A temperature probe was placed into the intraarticular space of the patient's knee joint to measure intraarticular temperature of the knee joint. A temperature probe was also placed on the skin in the area to be cooled in order to measure skin temperature in the area to be cooled.
Five human patients suffering from moderate to severe painful bilateral knee osteoarthritis were recruited for this study evaluating the impact that cooling protocol has on the magnitude of temporary pain experienced by the patient due to administration of capsaicin. […] Patients that participated in the study passed the following screening criteria and meet the patient inclusion and exclusion criteria are set forth below. As part of patient screening, patients received an intradermal injection of 100 μL (100 μg) capsaicin into the non-dominant volar forearm. To be eligible to enter the study, patients were able to tolerate the capsaicin injection. Screening patients rated the pain from capsaicin injection at 5, 10, 20, and 30 minutes after injection using a 0-10 Numerical Pain Rating Scale, where “0” equals no pain and “10” equals worst possible pain.
as §4, with “ice pack (having a surface for application to the patient, wherein said surface has a diameter of approximately six inches) is positioned” for “ice pack is positioned”, “knee joint. A temperature” for “knee joint. The ice pack was a LEADSTAR pain relief reusable cold therapy ice pack (size=6 inches). A temperature”, “knee joint. At the discretion of the physician performing the procedure, in order to reduce discomfort for the patient, the protocol authorized the physician to instill a volume of 1-2 cc of 2% w/w lidocaine (without epinephrine) into the skin and subcutaneous tissue of the knee at the site of intra-articular probe insertion. A temperature” for “knee joint. A temperature”
One the first day of the study, patients were randomized so that (i) three patients receiving cooling of the knee joint using the Breg Knee WrapOn Polar Pad and (ii) two patients will receive ice-pack cooling over the patella as set forth above. Patients were subjected to the following procedure: • Placement of intraarticular temperature probe and skin temperature probe. […]

[8] = Capsaicin 1.0 mg Dose (n = 71), listed as capsaicin
[9] = Capsaicin at Either 0.5 mg or 1.0 Dose (n = 105)
[10] = Capsaicin at Either 0.5 mg or 1.0 Dose (n = 105), listed as capsaicin
[11] = Capsaicin at 0.5 mg Dose, Week 4
[12] = Capsaicin at 0.5 mg Dose, Week 8
[13] = Capsaicin at 0.5 mg Dose, Week 12
[14] = Capsaicin at 0.5 mg Dose, Week 16
[15] = Capsaicin at 0.5 mg Dose, Week 24
[16] = Capsaicin at 1.0 mg Dose, Week 4
[17] = Capsaicin at 1.0 mg Dose, Week 8
[18] = Capsaicin at 1.0 mg Dose, Week 12
[19] = Capsaicin at 1.0 mg Dose, Week 16
[20] = Capsaicin at 1.0 mg Dose, Week 24

SMILES: COc1cc(CNC(=O)CCCCC=CC(C)C)ccc1O [Capsaicin, N-[(4-hydroxy-3-methoxyphenyl)methyl]-8-methylnon-6-enamide]
- All TEAEs, (%) ([1]; Capsaicin 0.5 mg Dose (n = 34)): (47) %
- Arthralgia TEAE, (%) ([1]; Capsaicin 0.5 mg Dose (n = 34)): (8.8) %
- Hepatic enzyme increased TEAE, (%) ([1]; Capsaicin 0.5 mg Dose (n = 34)): (5.9) %
- Influenza TEAE, (%) ([1]; Capsaicin 0.5 mg Dose (n = 34)): (2.9) %
- Joint effusion TEAE, (%) ([1]; Capsaicin 0.5 mg Dose (n = 34)): (8.8) %
- Nasopharyngitis TEAE, (%) ([1]; Capsaicin 0.5 mg Dose (n = 34)): (2.9) %
- Upper respiratory tract infection TEAE, (%) ([1]; Capsaicin 0.5 mg Dose (n = 34)): (5.9) %
- All TEAEs, (%) ([1]; Capsaicin 0.5 mg Dose (n = 34), listed as capsaicin): 47%
- All TEAEs, (%) ([1]; Capsaicin 1.0 mg Dose (n = 71)): (30) %
- Arthralgia TEAE, (%) ([1]; Capsaicin 1.0 mg Dose (n = 71)): (7.0) %
- Hepatic enzyme increased TEAE, (%) ([1]; Capsaicin 1.0 mg Dose (n = 71)): (1.4) %
- Influenza TEAE, (%) ([1]; Capsaicin 1.0 mg Dose (n = 71)): (2.8) %
- Nasopharyngitis TEAE, (%) ([1]; Capsaicin 1.0 mg Dose (n = 71)): (2.8) %
- Upper respiratory tract infection TEAE, (%) ([1]; Capsaicin 1.0 mg Dose (n = 71)): (4.2) %
- All TEAEs, (%) [1, 8]: 30%
- Arthralgia TEAE, (%) [1, 8]: 7.0%
- All TEAEs, (%) [1, 9]: (35) %
- Arthralgia TEAE, (%) [1, 9]: (7.6) %
- Hepatic enzyme increased TEAE, (%) [1, 9]: (2.9) %
- Influenza TEAE, (%) [1, 9]: (2.9) %
- Joint effusion TEAE, (%) [1, 9]: (2.9) %
- Nasopharyngitis TEAE, (%) [1, 9]: (2.9) %
- Upper respiratory tract infection TEAE, (%) [1, 9]: (4.8) %
- Arthralgia TEAE, (%) [1, 10]: 7.6%
- Upper respiratory tract infection TEAE, (%) [1, 10]: 4.8%
- Laboratory abnormalities ([1]; all groups, most mild and associated with comorbidities): Few laboratory abnormalities were observed
- TEAEs mild in severity, patients ([1]; capsaicin 0.5 mg dose group): 29%
- TEAEs moderate in severity, patients ([1]; capsaicin 0.5 mg dose group): 18%
- Serious AEs (SAEs) ([1]; capsaicin 0.5 mg dose group, not considered treatment related): One SAE (shoulder pain from osteoarthritis)
- TEAEs mild in severity, patients ([1]; capsaicin 1.0 mg dose group): 20%
- TEAEs moderate in severity, patients ([1]; capsaicin 1.0 mg dose group): 9.9%
- Tolerability / safety profile ([1]; single injection 1.0 mg dose, up to 24 weeks): well tolerated with a safety profile generally comparable to placebo
- Patients reporting mild procedural pain [2]: 39%
- Patients reporting no procedural pain [2]: 50%
- PGIC: proportion of patients reporting significant improvement in the index knee ([3]; 0.5 mg dose, P=0.18): 58%
- PGIC: proportion of patients reporting significant improvement in the index knee ([3]; 1.0 mg dose, P=0.01): 64%
- PGIC: likelihood of significant improvement compared with placebo ([3]; 1.0 mg dose, weeks 4, 8 and 12): greater than two-fold likelihood
- PGIC: Odds Ratio vs Placebo [3, 11]: 1.76 (P = 0.18)
- PGIC: Odds Ratio vs Placebo [3, 12]: 1.89 (P = 0.14)
- PGIC: Odds Ratio vs Placebo [3, 13]: 2.75 (P = 0.03)
- PGIC: Odds Ratio vs Placebo [3, 14]: 2.37 (P = 0.05)
- PGIC: Odds Ratio vs Placebo [3, 15]: 1.68 (P = 0.23)
- PGIC: Odds Ratio vs Placebo [3, 16]: 2.34 (P = 0.01)
- PGIC: Odds Ratio vs Placebo [3, 17]: 2.50 (P = 0.008)
- PGIC: Odds Ratio vs Placebo [3, 18]: 2.40 (P = 0.01)
- PGIC: Odds Ratio vs Placebo [3, 19]: 1.85 (P = 0.07)
- PGIC: Odds Ratio vs Placebo [3, 20]: 1.64 (P = 0.15)
- PSFS: ability to perform activities versus placebo ([4]; 1.0 mg dose, weeks 4-16): significantly improved patients' ability to perform activities versus placebo
- PSFS: LSMD versus Placebo [4, 11]: 0.01 (P = 0.98)
- PSFS: LSMD versus Placebo [4, 12]: −0.03 (P = 0.96)
- PSFS: LSMD versus Placebo [4, 13]: −0.4 (P = 0.40)
- PSFS: LSMD versus Placebo [4, 14]: −0.5 (P = 0.35)
- PSFS: LSMD versus Placebo [4, 15]: −0.05 (P = 0.93)
- PSFS: LSMD versus Placebo [4, 16]: −1.4 (P = 0.0006)
- PSFS: LSMD versus Placebo [4, 17]: −0.9 (P = 0.03)
- PSFS: LSMD versus Placebo [4, 18]: −1.1 (P = 0.007)
- PSFS: LSMD versus Placebo [4, 19]: −0.9 (P = 0.04)
- PSFS: LSMD versus Placebo [4, 20]: −0.5 (P = 0.27)
- Improvement in physical function versus placebo ([4]; single injection 1.0 mg dose, moderate to severe osteoarthritis knee pain): statistically significant improvements in physical function for 12-16 weeks
- WOMAC B score, least squares mean difference versus placebo [5]: −2.1
- WOMAC C score, least squares mean difference versus placebo [6]: −14.8
- Pain due to capsaicin injection, comparison of cooling methods [7]: less when Breg Knee WrapOn Polar Pad cooling was used
